Results as given in patent US7384915B2, “Chimeric insulin-gad proteins for treating patients with type 1 diabetes or at risk of developing type 1 diabetes” (Alexion Pharmaceuticals, Inc., priority 1997, dated 2008).
Like-named read-outs stand apart in the source and are kept apart here.

Key:
[1] = test system: NOD/SCID mice injected with diabetogenic spleen cells; experiment: NOD/SCID adoptive transfer model of IDDM; format: in vivo, mouse; conditions: IV, 300 ugs of antigen twice daily every other day, day 3 to day 9 after spleen cell transfer; FIG. 5
Procedure: Experiments in the NOD/SCID Adoptive Transfer Model: Spleen mononuclear cells were harvested from diabetic NOD mice of recent disease onset (diabetic not more than 3 weeks) and about 35×10^6 of these spleen cells in 0.2 ml of PBS were injected intravenously into 6-8 week old NOD/SCID mice. Onset of diabetes was monitored biweekly by urine glucose testing and confirmed by blood glucose testing on day 28 relative to the time of spleen cell transfer. At day 28, these mice were sacrificed and examined histologically.
Diabetogenic splenic mononuclear cells were harvested from newly diabetic NOD mice (onset less than 3 weeks previous). To initiate the destruction of islet beta cells and the development of diabetes, 8-12 week old NOD/SCID mice were injected intravenously with 35×10^6 diabetogenic spleen cells. The incidence and onset of diabetes were monitored biweekly by urine glucose testing and confirmed by blood glucose testing at the end of the experiment. The average onset time of diabetes after disease induction was approximately 25 days. IV treatment with IG2, IG3, or islet beta cell antigens was initiated on day 3. Animals were treated with 300 ugs of antigen twice daily every other day for a period of six days (from day 3 to day 9, where the time of spleen cell transfer was day 0).

[2] = test system: non-diabetic male NOD recipients
Procedure: CYTOXAN induction experiments: CYTOXAN (Cyclophosphamide) treatment can increase the incidence and accelerate the onset of diabetes in non-diabetic NOD mice. Randomly selected, non-diabetic male NOD mice, which were 100 to 110 days of age, were injected (ip) with cyclophosphamide (250 mg/kg) on day 0.
All the mice were subjected to urine glucose measurement 2-3 times per week for a period of 21 days after cyclophosphamide injection. The onset of diabetes was recorded as the first point at which two consecutive days of positive urine glucose results were obtained. Blood glucose was also measured to confirm the urine glucose results. […] At day 21, these mice were sacrificed and examined histologically.

[3] = test system: non-diabetic male NOD mice; experiment: CYTOXAN (cyclophosphamide) induced IDDM model, antigen treatment; format: in vivo, mouse; conditions: FIG. 3
Excerpt: Experimental Methods Non-obese diabetic (NOD) mice are a strain of mice that are prone to the development of diabetes, and represent an accepted model system for the study of diabetes mellitus. These mice, designated NOD/MrkTacfBR, were purchased from Taconic Farms (Germantown, N.Y.). NOD SCID mice, designated NOD/SCID, are available from the Jackson Laboratories, Bar Harbor, Me. The incidence of diabetes by 200 days of age in these mice is 80% in females and 50% in males. At 110 days of age, fewer than 15% of the male NOD mice became diabetic. […] In contrast, animals treated with either ICB or either of GAD 65 250-273 or 520-555 peptides, experienced reductions to less than 50% incidence of diabetes. The therapeutic effects of treatment with combinations of ICB and the two GAD peptides were then examined (FIG. 3).

Question: “ICB: Oxidized bovine insulin Chain B purchased from Sigma (catalog no. I-6383)” was tested. Which “onset of disease in NOD/SCID recipients” value [1] did it give?
Answer: Its value is “only a slight delay in disease onset”.

Question: With `O=P1(N(CCCl)CCCl)NCCCO1` (centres unmarked) [CYTOXAN, cyclophosphamide] as the compound, how does the “# Diabetic/Total” value ([2]; CYTOXAN 200 mg/kg) read?
Answer: The value was 2/7.

Question: And the “% diabetic” value ([2]; CYTOXAN 200 mg/kg)?
Answer: Its value is 28.6%.

Question: And the Mean onset time ([2]; CYTOXAN 200 mg/kg)?
Answer: Its Mean onset time is 12.

Question: And the “# Diabetic/Total” value ([2]; CYTOXAN 250 mg/kg)?
Answer: Its value is 5/7.

Question: What about the “% diabetic” value ([2]; CYTOXAN 250 mg/kg) of the same compound?
Answer: The value was 71.4%.

Question: And the Mean onset time ([2]; CYTOXAN 250 mg/kg)?
Answer: The Mean onset time was 11.

Question: And the “# Diabetic/Total” value ([2]; CYTOXAN 300 mg/kg)?
Answer: Its value is 5/7.

Question: What about the “% diabetic” value ([2]; CYTOXAN 300 mg/kg) of the same compound?
Answer: The value was 71.4%.

Question: What about the Mean onset time ([2]; CYTOXAN 300 mg/kg) of the same compound?
Answer: The Mean onset time was 12.6.

Question: “GAD 65 520-555: human GAD 65 peptide 520-555, sequence corresponding to amino acid residues 139-173 of SEQ ID NO:2 (EERMSRLSKVAPVIKARMMEYGTTMVSYQPLGDKV; IG2 fusion protein for hGAD65 (human glutamate decarboxylase))” was tested. Which “effect of addition to the ICB with GAD 65 250-273 combination on therapeutic efficacy” value [3] did it give?
Answer: Its value is “appeared to inhibit the therapeutic efficacy”.
